Source: US11066668B2, “Compositions and methods for modulation of IKBKAP splicing” (Ionis Pharmaceuticals, Inc., priority 2012, dated 2021)
Oligonucleotides are written 5' to 3', each unit as a sugar letter and its base; * is a phosphorothioate linkage, no mark a phosphodiester; rarer units and linkages stand in square brackets, end groups in braces. Plain capitals give the bases only. e = 2'-O-(2-methoxyethyl) (MOE); [5mC] = 5-methylcytosine

Experiments:
IKAP protein = IKAP protein levels in GM04899 fibroblasts (SDS-PAGE, anti-IKAP antibody, band intensity); type: cell-based, human
Procedure: Protein samples were obtained by Trizol extraction and separated by SDS-PAGE. The bands were transferred onto a nitrocellulose membrane and probed with an anti-IKAP antibody (abcam #ab56362) (1:1,000 dilution in 5% milk in TBST) for 12 hrs. The membrane was washed 5 times with TBST for 5 min each and then probed with secondary antibody 800 nm LiCor (1:5,000 in 5% milk in TBST) for 1 hr in the dark. The membrane was subsequently washed 5 times with TBST for 5 min each. The bands were then exposed at 800 nm and band intensity was quantified using an Odyssey (LiCor) instrument. The results are presented in Table 4 as percent increase in band intensity compared to the control oligonucleotide-treated bands.

human IKBKAP mRNA [1] = test: Exon 20 inclusion in adult transgenic mice after intracerebroventricular infusion; type: in vivo, mouse; settings: for Percent inclusion of exon 20 in human IKBKAP mRNA: thoracic spinal cord, day 8
Procedure: (§1) To investigate the effect of ISIS 421992 in an animal model, transgenic mice that carry the entire human IKBKAP gene with the major FD mutation, in addition to being homozygous wild type at the mouse Ikbkap locus, were obtained from an NIH core facility.
Adult mice were treated with ISIS 421992 administered by intracerebroventricular infusion at the rate of 50 μg/day, 100 μg/day, or 200 μg/day. The protocol has been previously described by Hua et al. (Genes Dev. 2010. 24: 1634-1644). Adult mice 3-4 months old and weighing 20-30 g, were anesthetized and placed on a digital stereotaxic instrument (David Kopf Instruments). A small burr hole at the surgical site 1.8 mm lateral to the sagittal suture and 0.3 mm posterior to the bregma suture was drilled through the skull above the right lateral ventricle. A cannula with a 2.2 mm stylet was positioned in the hole. The cannula was connected to an Alzet micro-osmotic pump (model 1007D, Durect Corporation) with a vinyl catheter. The pump, prefilled with the oligonucleotide solution or PBS only was implanted subcutaneously on the back and continuously infused the solution through the cannula into the lateral ventricle at a rate of 0.5 μL per hour. After a week of ICV infusion, the mice were euthanized on day 8 and RNA from the thoracic spinal cord of the transgenic mice was extracted using Trizol and following the manufacturer's protocol. Multiple lanes for each condition represent independent experiments.

human IKBKAP mRNA [2] = test: Exon 20 inclusion in neonatal transgenic mice after single ICV or subcutaneous injection; type: in vivo, mouse; settings: neonatal Tg mice
Procedure: as §1
Neonatal transgenic mice were also treated with ISIS 421992 administered as a single ICV injection dose of 2.5 μg, 5 μg, 10 μg, 20 μg, or 30 μg. A group of neonatal mice were treated with ISIS 421992 administered subcutaneously using a 10 μL micro syringe (Hamilton) and a 33-gauge needle. In all cases, the injections were administered at P1 and the RNA was assayed at P8. The RNA splicing patterns in the various tissues after administering ISIS 421992 in neonate mice were then observed. Multiple lanes for each condition represent independent experiments.

ISIS 421992: uniform 2′-MOE 20-mer, phosphate backbone; GTCGCAAACAGTACAATGGC, SEQ ID NO 61, intron 20 (eGeTe[5mC]eGe[5mC]eAeAeAe[5mC]eAeGeTeAe[5mC]eAeAeTeGeGe[5mC])
Percent increase in protein band intensity (IKAP) (IKAP protein; GM04899, 2 nM as printed in Table 4, 3 days after transfection, compared to control oligonucleotide-treated bands): 76%
IKAP protein levels, in words (IKAP protein; GM04899, 5 nM, assayed 3 days after transfection): significant increase in IKAP protein levels
Percent inclusion of exon 20 in human IKBKAP mRNA (human IKBKAP mRNA [1]; ICV infusion 50 μg/day for a week): 40%
Percent inclusion of exon 20 in human IKBKAP mRNA (human IKBKAP mRNA [1]; ICV infusion 100 μg/day for a week): 46%
Percent inclusion of exon 20 in human IKBKAP mRNA (human IKBKAP mRNA [1]; ICV infusion 200 μg/day for a week): 60%
inclusion of exon 20 in human IKBKAP mRNA, in words (human IKBKAP mRNA [1]; ICV infusion 50-200 μg/day): dose-dependent increase in the inclusion of exon 20
tissue pattern of full-length IKBKAP mRNA, in words (human IKBKAP mRNA [2]; ICV administration): increased full-length IKBKAP mRNA in the brain and spinal cord, with moderate effects in the peripheral tissues
Percent inclusion of exon 20 in human IKBKAP mRNA (human IKBKAP mRNA [2]; ICV administration, Brain): 50%
Percent inclusion of exon 20 in human IKBKAP mRNA (human IKBKAP mRNA [2]; ICV administration, Heart): 40%
Percent inclusion of exon 20 in human IKBKAP mRNA (human IKBKAP mRNA [2]; ICV administration, Kidney): 33%
Percent inclusion of exon 20 in human IKBKAP mRNA (human IKBKAP mRNA [2]; ICV administration, Liver): 44%
Percent inclusion of exon 20 in human IKBKAP mRNA (human IKBKAP mRNA [2]; ICV administration, Muscle): 33%
Percent inclusion of exon 20 in human IKBKAP mRNA (human IKBKAP mRNA [2]; ICV administration, Spinal Cord): 47%
Percent inclusion of exon 20 in human IKBKAP mRNA (human IKBKAP mRNA [2]; s.c. injection, Brain): 18%
Percent inclusion of exon 20 in human IKBKAP mRNA (human IKBKAP mRNA [2]; s.c. injection, Heart): 58%
Percent inclusion of exon 20 in human IKBKAP mRNA (human IKBKAP mRNA [2]; s.c. injection, Kidney): 36%
Percent inclusion of exon 20 in human IKBKAP mRNA (human IKBKAP mRNA [2]; s.c. injection, Liver): 72%
Percent inclusion of exon 20 in human IKBKAP mRNA (human IKBKAP mRNA [2]; s.c. injection, Muscle): 60%
Percent inclusion of exon 20 in human IKBKAP mRNA (human IKBKAP mRNA [2]; s.c. injection, Spinal Cord): 19%
Percent inclusion of exon 20 in human IKBKAP mRNA (human IKBKAP mRNA [2]; single ICV injection 2.5 μg at P1, RNA at P8): 13%
Percent inclusion of exon 20 in human IKBKAP mRNA (human IKBKAP mRNA [2]; single ICV injection 5 μg at P1, RNA at P8): 18%
Percent inclusion of exon 20 in human IKBKAP mRNA (human IKBKAP mRNA [2]; single ICV injection 10 μg at P1, RNA at P8): 34%
Percent inclusion of exon 20 in human IKBKAP mRNA (human IKBKAP mRNA [2]; single ICV injection 20 μg at P1, RNA at P8): 36%
Percent inclusion of exon 20 in human IKBKAP mRNA (human IKBKAP mRNA [2]; single ICV injection 30 μg at P1, RNA at P8): 48%
tissue pattern of full-length IKBKAP mRNA, in words (human IKBKAP mRNA [2]; subcutaneous administration): primarily affected expression in the liver, skeletal muscle, and heart with moderate effects in the CNS
